From patent publication US9266878B2, “Phosphatidylinositol 3-kinase inhibitors” (Gilead Calistoga LLC, priority 2012, dated 2016)

What was measured:
Test in all cases: Enzymatic activity of PI3K isoforms, TR-FRET assay (PIP3 formation)
Format in all cases: biochemical
PI3Kα = PI3Kα (Homo sapiens (Human), UniProt P42336); conditions: bound given in uM
Outline: (§1)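 After 30 min at 25° C, reactions were quenched with 10 mM EDTA plus 10 nM labeled-PIP3 and 35 nM Europium-GRP-1, and TR-FRET was read (Ex 340, Em 615/665 nm). Enzymes were purified recombinant heterodimers; product PIP3 competes off the labeled tracer. Values given as IC50, nM.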

PI3Kδ = PI3Kδ (Homo sapiens (Human), UniProt O00329); conditions: bound given in nM
Chain of PI3Kδ (O00329 whole entry): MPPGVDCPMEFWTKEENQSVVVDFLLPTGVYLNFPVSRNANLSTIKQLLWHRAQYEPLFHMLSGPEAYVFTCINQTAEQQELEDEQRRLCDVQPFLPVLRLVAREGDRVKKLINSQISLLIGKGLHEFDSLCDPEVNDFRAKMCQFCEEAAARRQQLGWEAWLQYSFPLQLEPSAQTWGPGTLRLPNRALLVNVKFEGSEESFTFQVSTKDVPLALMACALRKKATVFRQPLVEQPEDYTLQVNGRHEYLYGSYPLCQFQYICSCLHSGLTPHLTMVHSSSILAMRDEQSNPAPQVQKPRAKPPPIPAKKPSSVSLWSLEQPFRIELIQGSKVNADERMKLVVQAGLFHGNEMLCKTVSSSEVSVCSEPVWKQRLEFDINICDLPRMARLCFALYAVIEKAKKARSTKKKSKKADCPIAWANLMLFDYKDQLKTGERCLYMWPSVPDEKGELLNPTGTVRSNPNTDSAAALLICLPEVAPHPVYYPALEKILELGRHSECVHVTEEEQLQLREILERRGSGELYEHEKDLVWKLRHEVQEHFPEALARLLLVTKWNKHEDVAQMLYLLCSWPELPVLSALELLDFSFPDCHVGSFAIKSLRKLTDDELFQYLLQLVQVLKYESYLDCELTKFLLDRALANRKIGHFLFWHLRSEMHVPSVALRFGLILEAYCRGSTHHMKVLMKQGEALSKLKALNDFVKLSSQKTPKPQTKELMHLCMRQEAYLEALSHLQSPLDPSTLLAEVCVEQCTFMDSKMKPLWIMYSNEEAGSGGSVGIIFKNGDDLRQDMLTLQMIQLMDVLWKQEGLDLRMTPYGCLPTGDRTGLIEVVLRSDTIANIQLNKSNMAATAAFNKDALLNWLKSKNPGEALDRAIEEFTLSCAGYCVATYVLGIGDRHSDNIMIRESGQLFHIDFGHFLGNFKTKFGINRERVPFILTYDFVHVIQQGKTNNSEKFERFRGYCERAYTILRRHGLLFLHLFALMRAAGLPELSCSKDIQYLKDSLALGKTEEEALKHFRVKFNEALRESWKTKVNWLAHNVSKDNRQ
Chain of PI3Kδ (P27986 whole entry partner): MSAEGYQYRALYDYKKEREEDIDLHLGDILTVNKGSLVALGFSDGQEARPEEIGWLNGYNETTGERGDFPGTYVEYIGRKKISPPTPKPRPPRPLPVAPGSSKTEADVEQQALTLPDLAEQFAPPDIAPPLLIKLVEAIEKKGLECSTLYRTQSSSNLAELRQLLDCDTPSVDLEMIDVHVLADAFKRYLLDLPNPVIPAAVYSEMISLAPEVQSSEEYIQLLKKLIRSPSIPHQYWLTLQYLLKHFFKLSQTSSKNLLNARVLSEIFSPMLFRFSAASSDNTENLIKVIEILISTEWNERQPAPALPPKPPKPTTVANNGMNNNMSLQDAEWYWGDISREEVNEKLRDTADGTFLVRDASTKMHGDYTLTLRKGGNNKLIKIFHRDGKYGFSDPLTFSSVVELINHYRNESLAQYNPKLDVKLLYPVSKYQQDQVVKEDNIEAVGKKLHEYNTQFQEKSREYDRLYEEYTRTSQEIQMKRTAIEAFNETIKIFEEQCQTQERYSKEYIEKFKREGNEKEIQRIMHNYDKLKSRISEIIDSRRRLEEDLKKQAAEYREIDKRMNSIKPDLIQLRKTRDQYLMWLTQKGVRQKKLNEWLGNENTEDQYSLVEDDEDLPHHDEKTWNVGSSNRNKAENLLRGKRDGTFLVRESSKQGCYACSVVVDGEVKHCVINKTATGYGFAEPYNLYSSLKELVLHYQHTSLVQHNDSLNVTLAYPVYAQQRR
Outline: as §1

PI3Kβ = PI3Kβ (Homo sapiens (Human), UniProt P42338)
Outline: (§2)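 IC50 (nM) reflects inhibition of PIP3 formation by purified recombinant heterodimeric PI3K, measured as loss of TR-FRET signal. The read-out comes from competition between enzyme-made PIP3 and labelled PIP3 for binding to the GRP-1 pleckstrin homology domain.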

PI3Kγ = PI3Kγ (Homo sapiens (Human), UniProt P48736)
Chain of PI3Kγ (P48736 whole entry): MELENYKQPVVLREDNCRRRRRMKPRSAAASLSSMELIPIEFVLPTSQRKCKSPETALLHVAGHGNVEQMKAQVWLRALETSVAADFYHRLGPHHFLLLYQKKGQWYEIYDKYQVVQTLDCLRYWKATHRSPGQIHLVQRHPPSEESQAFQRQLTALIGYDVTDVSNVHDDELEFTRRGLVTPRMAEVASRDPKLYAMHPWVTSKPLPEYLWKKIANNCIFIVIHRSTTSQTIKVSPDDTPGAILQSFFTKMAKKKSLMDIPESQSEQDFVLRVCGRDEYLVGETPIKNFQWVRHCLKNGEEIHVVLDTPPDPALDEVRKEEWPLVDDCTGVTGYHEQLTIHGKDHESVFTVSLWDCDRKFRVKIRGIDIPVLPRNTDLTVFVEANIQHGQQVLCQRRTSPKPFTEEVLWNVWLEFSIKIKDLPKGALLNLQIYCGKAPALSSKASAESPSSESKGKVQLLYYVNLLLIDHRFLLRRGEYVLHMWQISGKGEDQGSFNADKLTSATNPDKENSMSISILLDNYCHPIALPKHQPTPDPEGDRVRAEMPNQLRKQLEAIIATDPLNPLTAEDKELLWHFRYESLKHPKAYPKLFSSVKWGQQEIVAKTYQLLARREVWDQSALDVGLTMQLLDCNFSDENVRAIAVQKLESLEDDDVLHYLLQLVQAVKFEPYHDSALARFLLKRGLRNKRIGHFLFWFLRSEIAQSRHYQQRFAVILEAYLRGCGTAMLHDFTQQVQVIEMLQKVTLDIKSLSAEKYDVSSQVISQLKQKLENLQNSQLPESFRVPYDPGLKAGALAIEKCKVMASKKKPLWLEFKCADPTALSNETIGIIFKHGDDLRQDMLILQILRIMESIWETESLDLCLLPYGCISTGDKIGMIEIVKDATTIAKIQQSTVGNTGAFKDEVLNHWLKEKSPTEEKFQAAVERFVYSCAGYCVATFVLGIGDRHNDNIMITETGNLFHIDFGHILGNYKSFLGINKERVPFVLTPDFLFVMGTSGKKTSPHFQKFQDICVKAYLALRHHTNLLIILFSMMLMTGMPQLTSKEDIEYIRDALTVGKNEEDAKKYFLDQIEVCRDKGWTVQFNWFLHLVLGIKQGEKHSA
Chain of PI3Kγ (Q8WYR1 whole entry partner): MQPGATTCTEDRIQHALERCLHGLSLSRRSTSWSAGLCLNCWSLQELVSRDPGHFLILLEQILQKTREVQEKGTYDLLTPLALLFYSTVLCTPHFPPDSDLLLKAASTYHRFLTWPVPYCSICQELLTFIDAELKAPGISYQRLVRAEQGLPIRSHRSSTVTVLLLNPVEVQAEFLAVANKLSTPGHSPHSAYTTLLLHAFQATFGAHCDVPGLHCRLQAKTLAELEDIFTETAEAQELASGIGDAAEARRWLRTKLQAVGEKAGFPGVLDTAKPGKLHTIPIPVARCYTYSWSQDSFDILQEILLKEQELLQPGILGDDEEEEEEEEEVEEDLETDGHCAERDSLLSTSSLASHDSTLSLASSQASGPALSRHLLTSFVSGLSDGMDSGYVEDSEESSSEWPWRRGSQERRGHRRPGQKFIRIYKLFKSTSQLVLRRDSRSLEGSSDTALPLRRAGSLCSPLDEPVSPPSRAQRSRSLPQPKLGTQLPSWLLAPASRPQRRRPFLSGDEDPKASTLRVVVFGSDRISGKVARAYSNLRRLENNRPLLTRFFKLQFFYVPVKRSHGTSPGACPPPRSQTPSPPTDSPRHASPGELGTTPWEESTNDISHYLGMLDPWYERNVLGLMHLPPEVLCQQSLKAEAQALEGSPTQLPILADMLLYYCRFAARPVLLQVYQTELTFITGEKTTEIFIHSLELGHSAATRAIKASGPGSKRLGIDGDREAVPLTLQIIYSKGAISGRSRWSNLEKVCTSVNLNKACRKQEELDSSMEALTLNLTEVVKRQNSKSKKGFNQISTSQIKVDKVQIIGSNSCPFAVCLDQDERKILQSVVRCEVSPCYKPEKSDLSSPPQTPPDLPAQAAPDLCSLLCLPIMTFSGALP
Outline: as §2

Chain of PI3Kα (P42336 whole entry): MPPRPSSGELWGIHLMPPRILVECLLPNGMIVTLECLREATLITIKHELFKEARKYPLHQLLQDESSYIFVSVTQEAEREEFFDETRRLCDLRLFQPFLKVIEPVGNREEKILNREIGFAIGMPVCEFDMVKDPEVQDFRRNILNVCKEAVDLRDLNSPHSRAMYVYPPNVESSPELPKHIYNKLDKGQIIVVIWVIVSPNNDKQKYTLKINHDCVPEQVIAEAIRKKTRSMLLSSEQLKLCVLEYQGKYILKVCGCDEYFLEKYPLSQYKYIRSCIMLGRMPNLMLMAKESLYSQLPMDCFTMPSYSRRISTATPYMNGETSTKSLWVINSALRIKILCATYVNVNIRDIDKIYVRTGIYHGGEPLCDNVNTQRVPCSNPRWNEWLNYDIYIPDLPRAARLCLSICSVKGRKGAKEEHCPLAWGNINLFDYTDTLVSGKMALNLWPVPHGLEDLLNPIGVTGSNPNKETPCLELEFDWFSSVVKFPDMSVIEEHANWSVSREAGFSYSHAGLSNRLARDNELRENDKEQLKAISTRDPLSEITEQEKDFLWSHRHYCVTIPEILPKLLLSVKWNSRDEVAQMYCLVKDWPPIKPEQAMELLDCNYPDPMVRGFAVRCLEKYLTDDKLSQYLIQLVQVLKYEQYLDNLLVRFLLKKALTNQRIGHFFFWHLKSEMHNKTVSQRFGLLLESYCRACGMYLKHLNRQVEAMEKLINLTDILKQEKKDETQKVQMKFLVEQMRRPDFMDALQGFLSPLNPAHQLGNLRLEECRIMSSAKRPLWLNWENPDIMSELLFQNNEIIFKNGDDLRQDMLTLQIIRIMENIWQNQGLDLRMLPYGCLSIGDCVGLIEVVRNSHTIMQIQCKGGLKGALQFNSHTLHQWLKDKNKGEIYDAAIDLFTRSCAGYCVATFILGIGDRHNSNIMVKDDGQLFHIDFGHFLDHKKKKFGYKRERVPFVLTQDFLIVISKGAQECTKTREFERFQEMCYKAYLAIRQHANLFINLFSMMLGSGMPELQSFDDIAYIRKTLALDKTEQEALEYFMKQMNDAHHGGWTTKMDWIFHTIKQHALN
Chain of PI3Kα (P27986 whole entry partner): as the sequence (P27986 whole entry partner) above

IC50 (PI3Kα) [µM] | IC50 (PI3Kδ) [nM] | IC50 (PI3Kβ; bound given in uM) [µM] | IC50 (PI3Kγ; bound given in uM) [µM] | IC50 (PI3Kβ; bound given in nM) [µM] | IC50 (PI3Kγ; bound given in nM) [µM] | SMILES
> 1 | < 100 | > 1 | > 1 |  |  | Cc1cccc2nc([C@H](C)Nc3ncnc(N)c3C#Cc3ccc(F)cn3)n(-c3cccc(CN(C)S(C)(=O)=O)c3)c(=O)c12 [Compound 128a, (S)—N-(3-(2-(1-((6-amino-5-((5-fluoropyridin-2-yl)ethynyl)pyrimidin-4-yl)amino)ethyl)-5-methyl-4-oxoquinazolin-3(4H)-yl)benzyl)-N-methylmethanesulfonamide]
> 1 | < 100 | > 1 | > 1 |  |  | C[C@H](Nc1ncnc(N)c1C#Cc1ccc(F)cn1)c1nc2cccc(Cl)c2c(=O)n1-c1cccc(-c2ccccc2)c1 [Compound 60a, (S)-3-([1,1′-biphenyl]-3-yl)-2-(1-((6-amino-5-((5-fluoropyridin-2-yl)ethynyl)pyrimidin-4-yl)amino)ethyl)-5-chloroquinazolin-4(3H)-one]
> 1 | < 100 | > 1 | > 1 |  |  | C[C@H](O)C#Cc1c(N)ncnc1N[C@@H](C)c1nc2cccc(Cl)c2c(=O)n1-c1ccccc1 [Compound 19b, 2-((S)-1-(6-amino-5-((S)-3-hydroxybut-1-ynyl)pyrimidin-4-ylamino)ethyl)-5-chloro-3-phenylquinazolin-4(3H)-one]
> 1 | < 100 | > 1 | > 1 |  |  | C[C@H](Nc1ncnc(N)c1C#Cc1ccc(F)cn1)c1nc2cccc(Cl)c2c(=O)n1-c1cccc(CN(C)S(C)(=O)=O)c1 [Compound 129a, (S)—N-(3-(2-(1-((6-amino-5-((5-fluoropyridin-2-yl)ethynyl)pyrimidin-4-yl)amino)ethyl)-5-chloro-4-oxoquinazolin-3(4H)-yl)benzyl)-N-methylmethanesulfonamide]
> 1 | < 100 | > 1 | > 1 |  |  | C[C@H](Nc1ncnc(N)c1C#Cc1cnccn1)c1nc2cccc(F)c2c(=O)n1-c1cccc(F)c1 [Compound 101a, (S)-2-(1-((6-amino-5-(pyrazin-2-ylethynyl)pyrimidin-4-yl)amino)ethyl)-5-fluoro-3-(3-fluorophenyl)quinazolin-4(3H)-one]
> 1 |  | > 1 | > 1 |  |  | C[C@H](Nc1ncnc(N)c1C#Cc1ccc(F)cn1)c1nc2cccc(Cl)c2c(=O)n1-c1cccc(S(C)(=O)=O)c1 [Compound 58a, (S)-2-(1-((6-amino-5-((5-fluoropyridin-2-yl)ethynyl)pyrimidin-4-yl)amino)ethyl)-5-chloro-3-(3-(methylsulfonyl)phenyl)quinazolin-4(3H)-one]
> 1 | < 100 | > 1 | > 1 |  |  | C[C@H](Nc1ncnc(N)c1C#Cc1ncccn1)c1nc2cccc(Cl)c2c(=O)n1-c1cccnc1 [Compound 117a, (S)-2-(1-((6-amino-5-(pyrimidin-2-ylethynyl)pyrimidin-4-yl)amino)ethyl)-5-chloro-3-(pyridin-3-yl)quinazolin-4(3H)-one]
> 1 | < 100 | > 1 | > 1 |  |  | C[C@H](Nc1ncnc(N)c1C#Cc1ccc(F)cn1)c1nc2ccc(F)cc2c(=O)n1-c1cccc(Cl)c1 [Compound 96a, (S)-2-(1-((6-amino-5-((5-fluoropyridin-2-yl)ethynyl)pyrimidin-4-yl)amino)ethyl)-3-(3-chlorophenyl)-6-fluoroquinazolin-4(3H)-one]
> 1 | < 100 | > 1 | > 1 |  |  | COC[C@@H](Nc1ncnc(N)c1C#Cc1ccc(F)cn1)c1nc2cccc(Cl)c2c(=O)n1-c1cc(F)cc(F)c1 [146b]
> 1 | < 100 | > 1 | > 1 |  |  | COc1cccc(-n2c([C@H](C)Nc3ncnc(N)c3C#Cc3ncccc3F)nc3cccc(Cl)c3c2=O)c1C [81-1a]
> 1 | < 100 |  | > 1 | < 0.1 |  | C[C@H](Nc1ncnc(N)c1C#Cc1ccc(F)cn1)c1nc2cccc(Cl)c2c(=O)n1N1CCNCC1 [Compound 127a, (S)-2-(1-((6-amino-5-((5-fluoropyridin-2-yl)ethynyl)pyrimidin-4-yl)amino)ethyl)-5-chloro-3-(piperazin-1-yl)quinazolin-4(3H)-one]
> 1 | < 100 | > 1 | > 1 |  |  | CC[C@H](Nc1ncnc(N)c1C#Cc1cnccn1)c1nc2cccc(F)c2c(=O)n1-c1cc(F)cc(F)c1 [Compound 107a, (S)-2-(1-((6-amino-5-(pyrazin-2-ylethynyl)pyrimidin-4-yl)amino)propyl)-3-(3,5-difluorophenyl)-5-fluoroquinazolin-4(3H)-one]
> 1 | < 100 | > 1 | > 1 |  |  | C[C@H](Nc1ncnc(N)c1C#CC1CCCCC1)c1nc2cccc(Cl)c2c(=O)n1-c1ccccc1 [Compound 145a, (S)-2-(1-((6-amino-5-(cyclohexylethynyl)pyrimidin-4-yl)amino)ethyl)-5-chloro-3-phenylquinazolin-4(3H)-one]
> 1 | < 100 | > 1 | > 1 |  |  | C[C@H](Nc1ncnc(N)c1C#Cc1cnccn1)c1nc2ccc(F)cc2c(=O)n1-c1cccc(Cl)c1 [Compound 97a, (S)-2-(1-((6-amino-5-(pyrazin-2-ylethynyl)pyrimidin-4-yl)amino)ethyl)-3-(3-chlorophenyl)-6-fluoroquinazolin-4(3H)-one]
> 1 |  | > 1 | > 1 |  |  | C[C@H](Nc1ncnc(N)c1C#Cc1ccc(OC(F)(F)F)cc1)c1nc2cccc(Cl)c2c(=O)n1-c1cc(F)cc(F)c1 [Compound 26a, (S)-2-(1-(6-amino-5-((4-(trifluoromethoxy)phenyl)ethynyl)pyrimidin-4-ylamino)ethyl)-5-chloro-3-(3,5-difluorophenyl)quinazolin-4(3H)-one]
> 1 |  | > 1 | > 1 |  |  | C[C@H](Nc1ncnc(N)c1C#Cc1ccc(F)cn1)c1nc2cccc(Cl)c2c(=O)n1-c1cccc(C(C)(C)C)c1 [Compound 59a, (S)-2-(1-((6-amino-5-((5-fluoropyridin-2-yl)ethynyl)pyrimidin-4-yl)amino)ethyl)-3-(3-(tert-butyl)phenyl)-5-chloroquinazolin-4(3H)-one]
> 1 |  | > 1 | > 1 |  |  | C[C@H](Nc1ncnc(N)c1C#Cc1cccnn1)c1nc2cccc(Cl)c2c(=O)n1-c1ccccc1 [Compound 14a, (S)-2-(1-(6-amino-5-(pyridazin-3-ylethynyl)pyrimidin-4-ylamino)ethyl)-5-chloro-3-phenylquinazolin-4(3H)-one]
> 1 |  | > 1 | > 1 |  |  | Nc1ncnc(N2CCCC[C@H]2c2nc3cccc(Cl)c3c(=O)n2-c2ccccc2)c1C#Cc1ccccn1 [Compound 36a, (S)-2-(1-(6-amino-5-(pyridin-2-ylethynyl)pyrimidin-4-yl)piperidin-2-yl)-5-chloro-3-phenylquinazolin-4(3H)-one]
 | < 100 |  |  | < 0.1 | < 0.1 | C[C@H](Nc1ncnc(N)c1C#Cc1cn[nH]c1)c1nc2cccc(Cl)c2c(=O)n1-c1ccccc1 [Compound 49a, (S)-2-(1-(5-((1H-pyrazol-4-yl)ethynyl)-6-aminopyrimidin-4-ylamino)ethyl)-5-chloro-3-phenylquinazolin-4(3H)-one]
 | < 100 |  |  | < 0.1 | < 0.1 | C[C@H](Nc1ncnc(N)c1C#Cc1cc(CO)ccn1)c1nc2cccc(Cl)c2c(=O)n1-c1ccccc1 [Compound 154a, (S)-2-(1-((6-amino-5-((4-(hydroxymethyl)pyridin-2-yl)ethynyl)pyrimidin-4-yl)amino)ethyl)-5-chloro-3-phenylquinazolin-4(3H)-one]
> 1 |  | > 1 | > 1 |  |  | CC(C)OC(=O)c1ccc(C#Cc2c(N)ncnc2N[C@@H](C)c2nc3cccc(Cl)c3c(=O)n2-c2ccccc2)nc1 [Compound 137a, (S)-isopropyl 6-((4-amino-6-((1-(5-chloro-4-oxo-3-phenyl-3,4-dihydroquinazolin-2-yl)ethyl)amino)pyrimidin-5-yl)ethynyl)nicotinate]
 | < 100 |  | > 1 | < 0.1 |  | C[C@H](Nc1ncnc(N)c1C#Cc1ccccn1)c1nc2cccc(Cl)c2c(=O)n1-c1cccc(C(N)=O)c1 [Compound 38a, (S)-3-(2-(1-(6-amino-5-(pyridin-2-ylethynyl)pyrimidin-4-ylamino)ethyl)-5-chloro-4-oxoquinazolin-3(4H)-yl)benzamide]
 | < 100 |  | > 1 | < 0.1 |  | C[C@H](Nc1ncnc(N)c1C#Cc1cc(C(=O)O)ccn1)c1nc2cccc(Cl)c2c(=O)n1-c1ccccc1 [Compound 160a, (S)-2-((4-amino-6-((1-(5-chloro-4-oxo-3-phenyl-3,4-dihydroquinazolin-2-yl)ethyl)amino)pyrimidin-5-yl)ethynyl)isonicotinic acid]
 | < 100 |  |  | < 0.1 | < 0.1 | C[C@H](Nc1ncnc(N)c1C#Cc1ccccc1)c1nc2cccc(Cl)c2c(=O)n1-c1ccccc1 [Compound 51a, (S)-2-(1-(6-amino-5-(phenylethynyl)pyrimidin-4-ylamino)ethyl)-5-chloro-3-phenylquinazolin-4(3H)-one]
